± gives the expanded uncertainty stated by the source.
Experiment: xn = mol fraction of the nth substance listed
Conditions: for surface tension liquid-gas: Wilhelmy-plate method; for mass density: 100 kPa, Liquid, Vibrating tube method

CC(O)CO (stereo not given) [1,2-propanediol] + O
Conditions | mass density, 298.15 K [kg/m3] | mass density, 308.15 K [kg/m3] | mass density, 318.15 K [kg/m3] | mass density, 328.15 K [kg/m3] | surface tension liquid-gas, 298.15 K [mN/m] | surface tension liquid-gas, 308.15 K [mN/m] | surface tension liquid-gas, 318.15 K [mN/m] | surface tension liquid-gas, 328.15 K [mN/m]
x1 = 0.05 | 1011.79 ± 0.07 | 1007.53 ± 0.06 | 1002.61 ± 0.06 | 997.16 ± 0.06 | 56.18 ± 0.21 | 54.93 ± 0.21 | 53.89 ± 0.21 | 52.6 ± 0.21
x1 = 0.1 | 1022.73 ± 0.06 | 1017.48 ± 0.05 | 1011.69 ± 0.05 | 1005.39 ± 0.05 | 50.94 ± 0.2 | 49.9 ± 0.2 | 48.9 ± 0.2 | 47.83 ± 0.2
x1 = 0.15 | 1030.33 ± 0.05 | 1024.23 ± 0.05 | 1017.73 ± 0.05 | 1010.88 ± 0.05 | 47.41 ± 0.2 | 46.53 ± 0.2 | 45.71 ± 0.2 | 44.66 ± 0.2
x1 = 0.2 | 1035.27 ± 0.05 | 1028.47 ± 0.05 | 1021.65 ± 0.05 | 1014.32 ± 0.05 | 45.19 ± 0.2 | 44.36 ± 0.2 | 43.45 ± 0.2 | 42.52 ± 0.2
x1 = 0.25 | 1038.27 ± 0.05 | 1031.17 ± 0.05 | 1023.85 ± 0.05 | 1016.27 ± 0.04 | 43.64 ± 0.2 | 42.89 ± 0.2 | 42.15 ± 0.2 | 41.17 ± 0.2
x1 = 0.3 | 1039.85 ± 0.05 | 1032.55 ± 0.05 | 1025.01 ± 0.05 | 1017.25 ± 0.04 | 42.6 ± 0.2 | 41.92 ± 0.2 | 41.19 ± 0.2 | 40.38 ± 0.2
x1 = 0.35 | 1040.55 ± 0.05 | 1033.05 ± 0.05 | 1025.42 ± 0.05 | 1017.54 ± 0.04 | 41.43 ± 0.2 | 40.86 ± 0.2 | 40.19 ± 0.2 | 39.49 ± 0.2
x1 = 0.4 | 1040.6 ± 0.05 | 1033.02 ± 0.05 | 1025.34 ± 0.05 | 1017.47 ± 0.04 | 40.47 ± 0.2 | 39.78 ± 0.2 | 39.24 ± 0.2 | 38.57 ± 0.2
x1 = 0.45 | 1040.28 ± 0.05 | 1032.76 ± 0.05 | 1025.05 ± 0.05 | 1017.1 ± 0.04 | 39.44 ± 0.2 | 38.89 ± 0.2 | 38.36 ± 0.2 | 37.8 ± 0.2
x1 = 0.5 | 1039.83 ± 0.05 | 1032.3 ± 0.05 | 1024.54 ± 0.05 | 1016.59 ± 0.04 | 38.76 ± 0.2 | 38.27 ± 0.2 | 37.73 ± 0.2 | 37.19 ± 0.2
x1 = 0.55 | 1039.24 ± 0.05 | 1031.7 ± 0.05 | 1023.93 ± 0.05 | 1016 ± 0.04 | 37.95 ± 0.2 | 37.5 ± 0.2 | 37.07 ± 0.2 | 36.55 ± 0.2
x1 = 0.6 | 1038.53 ± 0.05 | 1031.03 ± 0.05 | 1023.29 ± 0.05 | 1015.39 ± 0.04 | 37.4 ± 0.2 | 36.94 ± 0.2 | 36.63 ± 0.2 | 36.15 ± 0.2
x1 = 0.65 | 1037.84 ± 0.05 | 1030.31 ± 0.05 | 1022.58 ± 0.05 | 1014.69 ± 0.04 | 36.98 ± 0.2 | 36.57 ± 0.2 | 36.15 ± 0.2 | 35.75 ± 0.2
x1 = 0.7 | 1037.09 ± 0.05 | 1029.56 ± 0.05 | 1021.87 ± 0.05 | 1014 ± 0.04 | 36.8 ± 0.2 | 36.35 ± 0.2 | 35.89 ± 0.2 | 35.53 ± 0.2
x1 = 0.75 | 1036.33 ± 0.05 | 1028.81 ± 0.05 | 1021.11 ± 0.05 | 1013.3 ± 0.04 | 36.62 ± 0.2 | 36.24 ± 0.2 | 35.79 ± 0.2 | 35.32 ± 0.2
x1 = 0.8 | 1035.57 ± 0.05 | 1028.06 ± 0.05 | 1020.37 ± 0.05 | 1012.54 ± 0.04 | 36.44 ± 0.2 | 36.1 ± 0.2 | 35.66 ± 0.2 | 35.17 ± 0.2
x1 = 0.85 | 1034.81 ± 0.05 | 1027.32 ± 0.05 | 1019.61 ± 0.05 | 1011.8 ± 0.04 | 36.26 ± 0.2 | 35.94 ± 0.2 | 35.52 ± 0.2 | 35.04 ± 0.2
x1 = 0.9 | 1034.08 ± 0.05 | 1026.59 ± 0.05 | 1018.9 ± 0.05 | 1011.06 ± 0.04 | 36.08 ± 0.2 | 35.76 ± 0.2 | 35.4 ± 0.2 | 34.88 ± 0.2
x1 = 0.95 | 1033.35 ± 0.05 | 1025.88 ± 0.05 | 1018.19 ± 0.04 | 1010.37 ± 0.04 | 35.9 ± 0.2 | 35.52 ± 0.2 | 35.14 ± 0.2 | 34.75 ± 0.2
x1 = 1 | 1032.69 ± 0.05 | 1025.21 ± 0.05 | 1017.51 ± 0.04 | 1009.78 ± 0.04 | 35.74 ± 0.2 | 35.35 ± 0.2 | 34.96 ± 0.2 | 34.6 ± 0.2

CC(O)CO (stereo not given) [1,2-propanediol] + CC(C)O
Conditions | mass density, 298.15 K [kg/m3] | mass density, 308.15 K [kg/m3] | mass density, 318.15 K [kg/m3] | mass density, 328.15 K [kg/m3] | surface tension liquid-gas, 298.15 K [mN/m] | surface tension liquid-gas, 308.15 K [mN/m] | surface tension liquid-gas, 318.15 K [mN/m] | surface tension liquid-gas, 328.15 K [mN/m]
x2 = 0 | 1032.69 ± 0.05 | 1025.21 ± 0.05 | 1017.51 ± 0.04 | 1009.78 ± 0.04 | 35.74 ± 0.2 | 35.35 ± 0.2 | 34.96 ± 0.2 | 34.6 ± 0.2
x2 = 0.05 | 1020.3 ± 0.07 | 1012.75 ± 0.07 | 1005.08 ± 0.06 | 997.4 ± 0.06 | 32.86 ± 0.2 | 32.56 ± 0.2 | 32.35 ± 0.2 | 32.15 ± 0.2
x2 = 0.1 | 1007.84 ± 0.07 | 1000.22 ± 0.06 | 992.51 ± 0.07 | 984.7 ± 0.07 | 31.27 ± 0.2 | 30.98 ± 0.2 | 30.74 ± 0.2 | 30.54 ± 0.2
x2 = 0.15 | 995.3 ± 0.06 | 987.63 ± 0.07 | 979.84 ± 0.07 | 971.99 ± 0.07 | 30.1 ± 0.2 | 29.77 ± 0.2 | 29.48 ± 0.2 | 29.26 ± 0.2
x2 = 0.2 | 982.74 ± 0.07 | 974.98 ± 0.07 | 967.11 ± 0.07 | 959.2 ± 0.07 | 29.09 ± 0.2 | 28.74 ± 0.2 | 28.42 ± 0.2 | 28.18 ± 0.2
x2 = 0.25 | 970.17 ± 0.07 | 962.34 ± 0.07 | 954.39 ± 0.07 | 946.41 ± 0.08 | 28.21 ± 0.2 | 27.85 ± 0.2 | 27.51 ± 0.2 | 27.25 ± 0.2
x2 = 0.3 | 957.54 ± 0.07 | 949.69 ± 0.07 | 941.69 ± 0.08 | 933.61 ± 0.08 | 27.43 ± 0.2 | 27.04 ± 0.2 | 26.68 ± 0.2 | 26.4 ± 0.2
x2 = 0.35 | 944.87 ± 0.08 | 936.95 ± 0.08 | 928.9 ± 0.08 | 920.73 ± 0.08 | 26.72 ± 0.2 | 26.31 ± 0.2 | 25.94 ± 0.2 | 25.64 ± 0.2
x2 = 0.4 | 932.21 ± 0.08 | 924.2 ± 0.08 | 916.09 ± 0.08 | 907.91 ± 0.09 | 26.06 ± 0.2 | 25.64 ± 0.2 | 25.25 ± 0.2 | 24.93 ± 0.2
x2 = 0.45 | 919.52 ± 0.08 | 911.47 ± 0.09 | 903.3 ± 0.09 | 895.1 ± 0.09 | 25.43 ± 0.2 | 25.01 ± 0.2 | 24.64 ± 0.2 | 24.3 ± 0.2
x2 = 0.5 | 906.84 ± 0.09 | 898.7 ± 0.09 | 890.5 ± 0.09 | 882.26 ± 0.1 | 24.89 ± 0.2 | 24.47 ± 0.2 | 24.05 ± 0.2 | 23.71 ± 0.2
x2 = 0.55 | 894.16 ± 0.09 | 885.97 ± 0.09 | 877.7 ± 0.1 | 869.44 ± 0.1 | 24.39 ± 0.2 | 23.94 ± 0.2 | 23.52 ± 0.2 | 23.16 ± 0.2
x2 = 0.6 | 881.5 ± 0.1 | 873.25 ± 0.1 | 865 ± 0.1 | 856.69 ± 0.1 | 23.89 ± 0.2 | 23.44 ± 0.2 | 23.01 ± 0.2 | 22.64 ± 0.2
x2 = 0.65 | 868.82 ± 0.1 | 860.56 ± 0.1 | 852.29 ± 0.1 | 843.93 ± 0.11 | 23.43 ± 0.2 | 22.95 ± 0.2 | 22.51 ± 0.2 | 22.12 ± 0.2
x2 = 0.7 | 856.16 ± 0.1 | 847.8 ± 0.11 | 839.59 ± 0.11 | 831.21 ± 0.11 | 22.99 ± 0.2 | 22.49 ± 0.2 | 22.03 ± 0.2 | 21.62 ± 0.2
x2 = 0.75 | 843.49 ± 0.11 | 835.09 ± 0.11 | 826.8 ± 0.11 | 818.53 ± 0.12 | 22.58 ± 0.2 | 22.04 ± 0.2 | 21.56 ± 0.2 | 21.13 ± 0.2
x2 = 0.8 | 830.89 ± 0.11 | 822.4 ± 0.12 | 813.99 ± 0.12 | 805.71 ± 0.12 | 22.2 ± 0.2 | 21.63 ± 0.2 | 21.11 ± 0.2 | 20.65 ± 0.2
x2 = 0.85 | 818.33 ± 0.12 | 809.75 ± 0.12 | 801.22 ± 0.12 | 792.81 ± 0.13 | 21.82 ± 0.2 | 21.21 ± 0.2 | 20.66 ± 0.2 | 20.16 ± 0.2
x2 = 0.9 | 805.84 ± 0.12 | 797.18 ± 0.12 | 788.63 ± 0.13 | 780.09 ± 0.13 | 21.47 ± 0.2 | 20.82 ± 0.2 | 20.23 ± 0.2 | 19.68 ± 0.2
x2 = 0.95 | 793.45 ± 0.12 | 784.7 ± 0.13 | 776.1 ± 0.13 | 767.47 ± 0.13 | 21.12 ± 0.2 | 20.43 ± 0.2 | 19.8 ± 0.2 | 19.21 ± 0.2

Source: the NIST ThermoML archive (doi:10.1016/j.fluid.2014.12.040)
